In patent publication US9580473B2, “Method of inhibiting HIV-1 binding to genital epithelia using V3 loop-specific peptides and GP340-specific antibodies” (priority 2006, dated 2017):

Key:
HIV strain BL2 = assay: Trans-infection assay, AGS cells expressing endogenous gp-340 to T cell blasts; type: cell-based, HIV-1; conditions: peptide 10 μg/ml, 15 min preincubation, p24 7 days later
Description: FIG. 2 Transmission of HIV by AGS cells expressing endogenous gp-340 is inhibited by peptide corresponding to the V3 domain of Env. AGS cells were preincubated with gp-340-specific peptide 6283 or 6284, and control peptide 6220 (10 μg/ml) for 15 min and then pulsed with decreasing amounts of HIV strain BL2. After viral exposure, the cells were washed four times to remove unbound virus and cocultured with T cell blasts in the absence of peptides for 24 h. The T cell blasts were then moved to new wells and p24 Gag antigen content was measured 7 days later. IUs were calculated using PHA-blasts as target cells in a TCID50 assay. Experiment was performed in replicates of six per virus concentration. Data is expressed as the percentage of the 6 wells in which the cells became infected for each virus concentration.
(§1) Parental or gp-340 expressing 293 cells, VK2E6E7, Endo1E6E7, Ect1E6E7, or AGS cells or 1 mm^3 pieces of ectocervix obtained as described below seeded in 96 well plates were incubated with various IU inputs of HIV, in 100 μl final volume for 2 h at 37° C. and then extensively washed. Additional inhibitors, peptides or antibodies, were added to cells 30 min prior to pulsing with virus and replaced after cells were washed. Plates were centrifuged at 1250 rpm for 7 minutes between each wash. After viral incubation and washing, PHA-blasts were cocultured with the pulsed cells for 7 days at 37° C. with IL-2. Infection was monitored by measuring supernatant-associated p24 Gag protein content on day 7. TCID50 was calculated using the Reed-Münch formula.
To examine native expressed gp-340, the gastrointestinal carcinoma cell line AGS, which is expresses gp-340, was analyzed for its ability to transmit HIV in vitro. AGS cells enhanced transmission of HIV to target CD4^+ T cells. Cells were infected in 50% of the wells when 0.08 infectious units (IU) of virus were pulsed per well. This represented a 6-fold enhancement in the viral infectivity by gp-340. Peptides 6283 and 6284, derived from the proposed gp-340 binding site in Env, abolished the enhancement in infectivity. […]

HIV-1 BL2 virus = assay: Trans-infection assay, vaginal epithelial cells (VK2E6E7) to PHA-blasts; type: cell-based; conditions: pre-incubation with antibody, or peptide at time of viral pulsing; p24 after 7 days
Description: Vaginal epithelial cells (VK2E6E7) were incubated with isotype control or gp-340-specific antibodies 116 or DAPA and then pulsed with HIV-1 BL2 virus. After extensive washing, PHA-blasts were added for 24 h and then moved to new plates without VK2E6E7 cells. After 7 days, p24 Gag protein content in the supernatant was measured. Samples were run in triplicate and standard error of the mean is given.
as §1
Cell lines were pulsed with decreasing amounts of HIV Ba-L, washed and had target cells immediately added or added after 2 or 4 days of culture. […]

gp-340 = gp-340 (Homo sapiens, UniProt Q9UGM3); conditions: previously shown/demonstrated; cited from earlier work
gp-340, sequence (Q9UGM3 20-2413): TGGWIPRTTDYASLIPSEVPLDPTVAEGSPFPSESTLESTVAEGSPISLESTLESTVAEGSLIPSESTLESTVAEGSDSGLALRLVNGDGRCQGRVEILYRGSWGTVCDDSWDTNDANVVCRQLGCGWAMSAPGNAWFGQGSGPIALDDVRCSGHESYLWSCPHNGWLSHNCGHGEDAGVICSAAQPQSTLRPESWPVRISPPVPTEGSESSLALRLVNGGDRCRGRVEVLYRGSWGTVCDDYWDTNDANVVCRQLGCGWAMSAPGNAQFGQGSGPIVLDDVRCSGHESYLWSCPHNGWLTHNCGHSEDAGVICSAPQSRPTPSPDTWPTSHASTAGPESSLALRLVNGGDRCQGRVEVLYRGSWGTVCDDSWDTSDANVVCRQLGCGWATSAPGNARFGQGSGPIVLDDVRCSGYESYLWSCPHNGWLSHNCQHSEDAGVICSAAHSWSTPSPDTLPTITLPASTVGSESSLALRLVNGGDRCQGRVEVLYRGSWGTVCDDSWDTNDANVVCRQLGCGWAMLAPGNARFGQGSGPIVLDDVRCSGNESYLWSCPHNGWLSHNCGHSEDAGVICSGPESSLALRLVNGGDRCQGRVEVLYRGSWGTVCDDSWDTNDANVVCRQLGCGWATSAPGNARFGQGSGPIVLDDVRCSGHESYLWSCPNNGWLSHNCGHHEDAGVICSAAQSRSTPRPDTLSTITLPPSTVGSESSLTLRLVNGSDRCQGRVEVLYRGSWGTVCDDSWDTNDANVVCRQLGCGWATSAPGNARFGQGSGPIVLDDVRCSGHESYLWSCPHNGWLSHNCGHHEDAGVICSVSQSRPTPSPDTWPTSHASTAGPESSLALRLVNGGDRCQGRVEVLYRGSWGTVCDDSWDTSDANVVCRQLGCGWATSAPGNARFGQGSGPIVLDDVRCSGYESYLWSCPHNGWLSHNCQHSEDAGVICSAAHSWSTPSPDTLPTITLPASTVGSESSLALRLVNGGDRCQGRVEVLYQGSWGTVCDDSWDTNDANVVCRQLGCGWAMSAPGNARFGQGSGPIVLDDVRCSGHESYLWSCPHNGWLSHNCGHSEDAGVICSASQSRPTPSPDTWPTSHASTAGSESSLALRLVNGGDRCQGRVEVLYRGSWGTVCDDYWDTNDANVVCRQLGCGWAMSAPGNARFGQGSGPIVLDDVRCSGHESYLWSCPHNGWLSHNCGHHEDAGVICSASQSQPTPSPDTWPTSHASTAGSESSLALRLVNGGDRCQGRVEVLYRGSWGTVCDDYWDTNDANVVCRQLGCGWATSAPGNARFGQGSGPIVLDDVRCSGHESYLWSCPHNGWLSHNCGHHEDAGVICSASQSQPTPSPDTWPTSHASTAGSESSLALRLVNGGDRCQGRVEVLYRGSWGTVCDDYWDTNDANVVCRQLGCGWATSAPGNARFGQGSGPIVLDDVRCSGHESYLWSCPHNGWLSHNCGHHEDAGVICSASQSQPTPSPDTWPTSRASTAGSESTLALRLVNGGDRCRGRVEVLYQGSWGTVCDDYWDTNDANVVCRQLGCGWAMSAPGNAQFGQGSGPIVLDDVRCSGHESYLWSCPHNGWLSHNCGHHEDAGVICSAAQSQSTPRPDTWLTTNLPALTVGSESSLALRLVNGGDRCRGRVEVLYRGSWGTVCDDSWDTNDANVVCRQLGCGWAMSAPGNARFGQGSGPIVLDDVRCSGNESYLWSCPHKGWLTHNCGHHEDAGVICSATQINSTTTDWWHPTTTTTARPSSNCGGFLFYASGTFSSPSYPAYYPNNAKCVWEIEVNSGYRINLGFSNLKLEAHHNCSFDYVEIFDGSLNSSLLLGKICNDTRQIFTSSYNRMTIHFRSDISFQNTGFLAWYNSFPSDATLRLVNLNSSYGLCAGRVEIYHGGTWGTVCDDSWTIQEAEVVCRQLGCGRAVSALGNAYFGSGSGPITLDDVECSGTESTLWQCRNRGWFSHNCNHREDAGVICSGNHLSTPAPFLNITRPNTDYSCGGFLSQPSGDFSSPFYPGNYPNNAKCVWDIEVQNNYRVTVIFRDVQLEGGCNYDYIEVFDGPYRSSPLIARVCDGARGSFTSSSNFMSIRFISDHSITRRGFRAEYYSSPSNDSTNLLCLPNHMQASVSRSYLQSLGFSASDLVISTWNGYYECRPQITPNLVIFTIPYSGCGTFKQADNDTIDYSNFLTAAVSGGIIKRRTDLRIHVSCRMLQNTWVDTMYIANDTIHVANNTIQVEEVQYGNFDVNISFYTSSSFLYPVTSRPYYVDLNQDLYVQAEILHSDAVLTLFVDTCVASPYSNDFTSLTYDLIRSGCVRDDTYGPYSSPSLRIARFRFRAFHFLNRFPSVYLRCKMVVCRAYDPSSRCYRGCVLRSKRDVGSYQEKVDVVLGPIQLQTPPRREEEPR

[1] = tested on: HIV (primary M-tropic strain BL2); assay: Trans-infection assay, 293 clone 1D4 stably expressing gp-340 pulsed with HIV, cocultured with PHA-blasts; type: cell-based, HIV-1; conditions: for mean P24, transmission by clone 1D4 in presence of peptide: average of 6 wells
Description: FIG. 1. 293 cells stably expressing cell surface gp-340 enhance the transfer of HIV to target cells. (A) 293 cells and a clone, 1D4, stably expressing gp-340, were stained for surface expression of gp-340 using rabbit polyclonal antibody 1527. Isotype control stained cells shown are 293 cells, but the 1D4 clone gave the same pattern. (B) Clone 1D4 and 293 cells were pulsed with increasing IU of HIV BL2 virus with or without a V3-derived peptide 6284 (10 μg/ml) that blocks Env-gp-340 binding, washed and exposed to PHA-blasts for 7 days. IUs were calculated using PHA-blasts as target cells in a TCID50 assay. Experiment was performed in replicates of 6 wells per viral addition and data is expressed as the percentage of the wells that became infected.
as §1, with “After viral incubation and washing, PHA-blasts were cocultured with the pulsed cells for 7 days at 37° C. with IL-2.” left out
Secreted gp-340 found at high levels in the oral cavity and also exists in a cell surface-associated form, although mRNA containing exon 55, which encodes the putative transmembrane domain, has not yet been detected. […] The gp-340 expressing cell lines were measured for their ability to transmit cell-free HIV to human PHA- and IL-2-stimulated PBMCs (PHA-blasts). […] Infection was monitored by p24 Gag protein content in the culture supernatant in each well and scored for the presence or absence of infection. The assay used 6 replicates of cells for each viral dilution and condition and calculated the number of wells that became infected at each amount of added virus. […]

HIV [2] = assay: Direct HIV infection of PHA-blasts with peptide added before HIV; type: cell-based, HIV-1; conditions: peptide added to PHA-blasts prior to HIV
HIV [3] = assay: Trans-infection by genital tract epithelial cell lines; type: cell-based; conditions: treatment completely removes syndecan expression

KEATTTLFCASDAKA (Human) [peptide 6220, control peptide derived from another part of Env, reference compound]
enhancement in infectivity (transmission of HIV by AGS cells) (HIV strain BL2): had no impact

DAPA
ability of VK2E6E7 cells to bind and transmit HIV to PHA-blasts (HIV-1 BL2 virus): markedly decreased
Env binding to gp-340 (gp-340): inhibit

VQINCTRPNYNKRKR [peptide 6283]
enhancement in infectivity (transmission of HIV by AGS cells) (HIV strain BL2): abolished

CTRPNYNKRKRIHIG [peptide 6284]
mean P24, transmission by clone 1D4 in presence of peptide ([1]; 0.11 IU viral input, without peptide 184): 7
mean P24, transmission by clone 1D4 in presence of peptide ([1]; 0.33 IU viral input, without peptide 239): 7
enhancement of HIV trans-infection (TCID50) by gp-340-expressing cells ([1]; gp-340-expressing 293 cells pre-incubated with peptide 10 μg/ml, HIV BL2, PHA-blasts 7 days): abolished
infection of PHA-blasts (HIV [2]): did not affect
enhancement in infectivity (transmission of HIV by AGS cells) (HIV strain BL2): abolished
Env binding to gp-340 (gp-340): block

B1: heparinase: enzyme treatment that completely removes syndecan expression (protein, UniProt Q59289 25-659, looked up)
Heparin-sulfate lyase: QSSSITRKDFDHINLEYSGLEKVNKAVAAGNYDDAAKALLAYYREKSKAREPDFSNAEKPADIRQPIDKVTREMADKALVHQFQPHKGYGYFDYGKDINWQMWPVKDNEVRWQLHRVKWWQAMALVYHATGDEKYAREWVYQYSDWARKNPLGLSQDNDKFVWRPLEVSDRVQSLPPTFSLFVNSPAFTPAFLMEFLNSYHQQADYLSTHYAEQGNHRLFEAQRNLFAGVSFPEFKDSPRWRQTGISVLNTEIKKQVYADGMQFELSPIYHVAAIDIFLKAYGSAKRVNLEKEFPQSYVQTVENMIMALISISLPDYNTPMFGDSWITDKNFRMAQFASWARVFPANQAIKYFATDGKQGKAPNFLSKALSNAGFYTFRSGWDKNATVMVLKASPPGEFHAQPDNGTFELFIKGRNFTPDAGVFVYSGDEAIMKLRNWYRQTRIHSTLTLDNQNMVITKARQNKWETGNNLDVLTYTNPSYPNLDHQRSVLFINKKYFLVIDRAIGEATGNLGVHWQLKEDSNPVFDKTKNRVYTTYRDGNNLMIQSLNADRTSLNEEEGKVSYVYNKELKRPAFVFEKPKKNAGTQNFVSIVYPYDGQKAPEISIRENKGNDFEKGKLNLTLTINGKQQLVLVP
trans-infection after heparinase treatment (HIV [3]): no effect
